A short description of data set [1]: Terminal half life in healthy human subjects (6 subjects) at 2.6 mg/kg, iv by HPLC method. It is filed as ADME, organism-based. The settings on record: in vivo, read-out: beta t1/2 (converted).
The nature of data set [2]: Terminal half life in healthy human subjects (6 subjects) at 2.9 mg/kg, po by HPLC method. It is filed as ADME, organism-based. The settings on record: in vivo, read-out: beta t1/2 (converted).
Data set [3] in a line: Apparent volume of distribution in healthy human subjects (6 subjects) at 2.6 mg/kg, iv by HPLC method. It is filed as ADME, organism-based. The settings on record: in vivo, read-out: Vd(app).
Data set [4] can be described thus: Renal clearance in healthy human subjects (6 subjects) at 2.6 mg/kg, iv by HPLC method. The following applies: in vivo. Format: ADME, organism-based, Kidney.
Data set [5] in a line: Total body clearance in healthy human subjects (6 subjects) at 2.6 mg/kg, iv by HPLC method. Format: ADME, organism-based. The settings on record: in vivo.
Data set [6] in a line: Tmax in healthy human subjects (6 subjects) at 2.9 mg/kg, po by HPLC method. Format: ADME, organism-based. The settings on record: in vivo.
Data set [7] is described as follows: Cmax in healthy human subjects (6 subjects) at 2.9 mg/kg, po by HPLC method. More on the design: dose 2.9 mg/kg, route oral. It is filed as ADME, organism-based. The following applies: in vivo.
Data set [8] in a line: Oral bioavailability in healthy human subjects (6 subjects) at 2.9 mg/kg by HPLC method. It is filed as ADME, organism-based. The settings on record: in vivo.
Data set [9] is described as follows: Corrected oral bioavailability in healthy human subjects (6 subjects) at 2.9 mg/kg by HPLC method. It is filed as ADME, organism-based. The settings on record: in vivo.
Data set [10] in a line: Drug dissolution in water measured during 15 mins. The following applies: buffer, 0.25 h. It is filed as physicochemical.
A short description of data set [11]: Drug dissolution in 0.1N HCl measured during 15 mins. Format: physicochemical. The following applies: buffer, 0.25 h.
Data set [12] can be described thus: Oral bioavailability in human subjects receiving phenobarbital tablets after having received phenobarbital infusion for […] withdrawal. It is filed as ADME, organism-based. The settings on record: in vivo.
Data set [13] can be described thus: Drug dissolution in acid medium after 90 mins. Format: physicochemical. The settings on record: 1.5 h.
Data set [14] is described as follows: Drug dissolution in aqueous medium after 90 mins. The settings on record: buffer, 1.5 h. It is filed as physicochemical.
The nature of data set [15]: Tmax in human. The following applies: in vivo. Format: ADME, organism-based.
A short description of data set [16]: Tmax in adult human. Format: ADME, organism-based. The following applies: in vivo.
Data set [17] is described as follows: Elimination half life in healthy human subjects (6 subjects) at 2.6 mg/kg, iv measured during intravenous control dose (period-1) by HPLC method. It is filed as ADME, organism-based. The following applies: in vivo, read-out: beta t1/2 (converted).
Data set [18] in a line: Elimination half life in healthy human subjects (6 subjects) measured during alkaline diuresis dose (period-2) by HPLC method. The following applies: in vivo, read-out: beta t1/2 (converted). Format: ADME, organism-based.
Data set [19] is described as follows: Elimination half life in healthy human subjects (6 subjects) at 2.9 mg/kg, po measured during oral dose (period-3) by HPLC method. It is filed as ADME, organism-based. The settings on record: in vivo, read-out: beta t1/2 (converted).
Data set [20] concerns Homo sapiens. The data set can be described thus: Distribution half life in healthy human subjects (6 subjects) at 2.6 mg/kg, iv by HPLC method. It is filed as ADME, organism-based. The following applies: in vivo.
In data set [21] the test system is Homo sapiens. The data set can be described thus: Disposition rate constant at distribution phase in healthy human subjects (6 subjects) at 2.6 mg/kg, iv by HPLC method. It is filed as ADME, organism-based. The following applies: in vivo.
Data set [22] is described as follows: Disposition rate constant at terminal phase in healthy human subjects (6 subjects) at 2.6 mg/kg, iv by HPLC method. It is filed as ADME, organism-based. The following applies: in vivo.
Data set [23] in a line: Disposition rate constant at terminal phase in healthy human subjects (6 subjects) at 2.9 mg/kg, po by HPLC method. It is filed as ADME, organism-based. The settings on record: in vivo.

In general, clearance refers to the rate of elimination divided by the concentration. A lower clearance goes with a low capacity for elimination. One may read the Tmax as the time from dosing to the highest level. As usually defined, the Cmax is the highest concentration seen after dosing. The term bioavailability denotes dose-corrected exposure relative to a reference, in per cent.

Consider `CCC1(c2ccccc2)C(=O)NC(=O)NC1=O` [PHENOBARBITAL], for which the half-life is 139 h in data set [1]; 122 h in data set [2]; 147 h in [17]; 128 h in [18]; 149 h in [19]. Besides, the Vd in data set [3] came to 0.6 L/kg. The CL renal in [4] was 0.8 mL/h/kg. In [5], this compound showed a clearance of 3 mL/h/kg. Also, the Tmax in [6] is 2.3 h; in data set [15] it was ≤ 18 h; in data set [16] it was 50 h. Moreover, the Cmax in data set [7] is 5500 ng/mL. The bioavailability stood at 83.4% in data set [8], 94.9% in [9] and 100% in data set [12]. The Drug dissolution amounted to 80% in data set [10], 81.5% in data set [11], 61.3% in data set [13] and 86% in data set [14]. This compound also showed an alphat1/2 in [20] of 0.18 h. The compound also yielded a K in data set [21] of 3.8 h⁻¹. Besides, the values for the k el in data set [22] and in [23] were 1.39e-06 s⁻¹ and 1.58e-06 s⁻¹, respectively.

The record behind these values is ChEMBL document CHEMBL3785015, “Phenobarbital pharmacokinetics and bioavailability in adults” (J Clin Pharmacol, 1982).
